Measured values published in US20230404921A1, “LYOTROPIC LIQUID CRYSTALLINE PHASE PARTICLE” (priority 2020, published 2023).
≈ marks a conversion by molar mass, not a printed value. Like-named read-outs stand apart in the source and are kept apart here.

How the values were obtained:
[1] = tested on: Pseudomonas aeruginosa (ATCC 2835); test: MTS based cell viability assay; details: for inhibition at 0.5 µg/mL: ATCC2835, drug conc 0.5 ug/ml; for inhibition at 2.5 µg/mL: ATCC2835, drug conc 2.5 ug/ml; for inhibition at 5 µg/mL: ATCC2835, drug conc 5 ug/ml; for inhibition at 7.5 µg/mL: ATCC2835, drug conc 7.5 ug/ml; for inhibition at 10 µg/mL: ATCC2835, drug conc 10 ug/ml; for inhibition at 15 µg/mL: ATCC2835, drug conc 15 ug/ml; for inhibition at 20 µg/mL: ATCC2835, drug conc 20 ug/ml; for inhibition at 25 µg/mL: ATCC2835, drug conc 25 ug/ml
[2] = tested on: fluconazole-resistant Cryptococcus neoformans; test: Antimicrobial assay MIC-50 / MIC-90, 96 well plate; type: cell-based; details: for MIC50: Cryptococcus neoformans
[3] = tested on: Candida albicans (ATCC10251); test: Fungal cell viability assay (MTS)
[4] = Pseudomonas aeruginosa, read-out: Percentage inhibition

Compound | inhibition at 0.5 µg/mL [1, 4] [%] | inhibition at 2.5 µg/mL [1, 4] [%] | inhibition at 5 µg/mL [1, 4] [%] | inhibition at 7.5 µg/mL [1, 4] [%] | inhibition at 10 µg/mL [1, 4] [%] | inhibition at 15 µg/mL [1, 4] [%] | inhibition at 20 µg/mL [1, 4] [%] | inhibition at 25 µg/mL [1, 4] [%] | also measured
CC1(C)S[C@@H]2[C@H](NC(=O)[C@H](N)c3ccccc3)C(=O)N2[C@H]1C(=O)O [Ampicillin] | 39 | 39.8 | 41.9 | 42.8 | 46.4 | 62.2 | 69.9 | 72.3 | Percentage inhibition ([1]; drug conc 0.5 ug/ml): 38.64%
OC(Cn1cncn1)(Cn1cncn1)c1ccc(F)cc1F [Fluconazole only, Fluconazole] |  |  |  |  |  |  |  |  | MIC50 ([2]; pH 5.17): 12.4 µg/mL (≈ 40.4 µM); MIC50 ([2]; pH 7.08, read-out: MIC-50): 12.2 µg/mL (≈ 39.7 µM); MIC-90 ([2]; pH 5.17): fails to reach MIC-90
C[C@@H]1[C@H](O)[C@@H](C)/C=C/C=C/C=C/C=C/C=C/C=C/C=C/[C@H](O[C@@H]2O[C@H](C)[C@@H](O)[C@H](N)[C@@H]2O)C[C@@H]2O[C@](O)(C[C@@H](O)C[C@@H](O)[C@H](O)CC[C@@H](O)C[C@@H](O)CC(=O)O[C@H]1C)C[C@H](O)[C@H]2C(=O)O [amphotericin, Amphotericin B] |  |  |  |  |  |  |  |  | concentration required to achieve 98% inhibition [3]: 10 µg/mL
CO[C@@H]1[C@@H](OC(N)=O)[C@@H](O)[C@H](Oc2ccc3c(O)c(NC(=O)c4ccc(O)c(CC=C(C)C)c4)c(=O)oc3c2C)OC1(C)C [novobiocin, Novobiocin] |  |  |  |  |  |  |  |  | inhibition at 80 µg/mL ([1]; Pseudomonas aeruginosa, ATCC2835, drug conc 80 ug/ml, read-out: Percentage inhibition): 13%
CN[C@H](CC(C)C)C(=O)N[C@H]1C(=O)N[C@@H](CC(N)=O)C(=O)N[C@H]2C(=O)N[C@H]3C(=O)N[C@H](C(=O)N[C@H](C(=O)O)c4cc(O)cc(O)c4-c4cc3ccc4O)[C@H](O)c3ccc(c(Cl)c3)Oc3cc2cc(c3O[C@@H]2O[C@H](CO)[C@@H](O)[C@H](O)[C@H]2O[C@H]2C[C@](C)(N)[C@H](O)[C@H](C)O2)Oc2ccc(cc2Cl)[C@H]1O [vancomycin, Vancomycin] | 1.24 | 9.83 | 11.6 | 14.2 | 16.6 | 17.6 | 18 | 18.4 | 
